As a reminder, the Kd is the constant that tells how readily two partners part at equilibrium. Broadly, the IC50 is the concentration that gives 50% inhibition. Broadly, the Tmax is the time from dosing to the highest level. A word on the Cmax: it is the highest concentration seen after dosing. The term AUC denotes concentration integrated over time. Read a high AUC as more exposure. What is called half-life is the time in which the quantity being followed falls by half. A high value points to slow decline. The CL/F is clearance divided by bioavailability, as obtained after extravascular dosing. The term bioavailability denotes the share of a dose that reaches the circulation, judged against a reference dose that is usually intravenous. Read a high bioavailability as much systemic uptake.

In series [1] the target is Heat shock protein HSP90 (Homo sapiens, UniProt P07900+P08238). Kind of series: Binding affinity to Hsp90 (unknown origin) assessed as dissociation constant incubated for 30 mins by fluorescence spectrophotometric analysis. The class given is protein assay.
Series [2] concerns the target T1, Endoplasmin (Homo sapiens, UniProt P14625). Kind of series: Inhibition of GRP94 (unknown origin) incubated for 12 to 16 hrs by FP competition assay.
The test system of series [3] is HCT-116. Put plainly: Antiproliferative activity against human HCT-116 cells assessed as cell viability inhibition rate incubated for 72 hr by MTT assay. Format: functional, cell-based. The settings on record: HCT-116, 72 h. On the technique in general: Formazan colour is commonly taken as a measure of viable cells.
The subject of series [4] is MCF7. Put plainly: Antiproliferative activity against human MCF7 cells assessed as cell viability inhibition rate incubated for 72 hr by MTT assay. Format: functional, cell-based. The settings on record: MCF7, 72 h.
Series [5] has as its system SK-BR-3. Put plainly: Antiproliferative activity against human SK-BR-3 cells assessed as cell viability inhibition rate incubated for 72 hr by MTT assay. The class given is functional, cell-based. Particulars: SK-BR-3, 72 h.
Series [6] relates to K562. Put plainly: Antiproliferative activity against human K562 cells assessed as cell viability inhibition rate incubated for 72 hr by MTT assay. The class given is functional, cell-based. Particulars: K562, 72 h.
The test system of series [7] is A549. Kind of series: Antiproliferative activity against human A549 cells assessed as cell viability inhibition rate incubated for 72 hr by MTT assay. The class given is functional, cell-based. The settings on record: A549, 72 h.
Series [8] has as its target T2, Heat shock protein HSP 90-alpha (Homo sapiens, UniProt P07900). Kind of series: Inhibition of HSP90alpha (unknown origin) incubated for 12 to 16 hrs by FP competition assay.
Series [9] can be described thus: Selectivity ratio of IC50 for inhibition of GRP94 (unknown origin) to IC50 for inhibition of HSP90alpha (unknown origin).
A short description of series [10]: Tmax in rat plasma at 50 mg/kg, po and measured upto 24 hr by LC-MS/MS analysis. Format: ADME, organism-based.
A short description of series [11]: Cmax in rat plasma at 50 mg/kg, po and measured upto 24 hr by LC-MS/MS analysis. Format: ADME, organism-based.
Series [12] in a line: AUC in rat plasma at 50 mg/kg, po and measured upto 24 hr by LC-MS/MS analysis. The class given is ADME, organism-based.
Series [13] in a line: Half life in rat plasma at 50 mg/kg, po and measured upto 24 hr by LC-MS/MS analysis. The class given is ADME, organism-based.
Series [14] in a line: Clearance in rat plasma at 50 mg/kg, po and measured upto 24 hr by LC-MS/MS analysis. The class given is ADME, organism-based.
Series [15] is described as follows: Oral bioavailability in rat at 50 mg/kg and measured upto 24 hr by LC-MS/MS analysis. The class given is ADME, organism-based. Particulars: in vivo.
For series [16], the target named is T2, Heat shock protein HSP 90-alpha. Put plainly: Binding affinity to Hsp90alpha (unknown origin) assessed as dissociation constant.
For series [17], the target named is T1, Endoplasmin. Put plainly: Binding affinity to GRP94 (unknown origin) assessed as dissociation constant.

T1 sequence (P14625 whole entry): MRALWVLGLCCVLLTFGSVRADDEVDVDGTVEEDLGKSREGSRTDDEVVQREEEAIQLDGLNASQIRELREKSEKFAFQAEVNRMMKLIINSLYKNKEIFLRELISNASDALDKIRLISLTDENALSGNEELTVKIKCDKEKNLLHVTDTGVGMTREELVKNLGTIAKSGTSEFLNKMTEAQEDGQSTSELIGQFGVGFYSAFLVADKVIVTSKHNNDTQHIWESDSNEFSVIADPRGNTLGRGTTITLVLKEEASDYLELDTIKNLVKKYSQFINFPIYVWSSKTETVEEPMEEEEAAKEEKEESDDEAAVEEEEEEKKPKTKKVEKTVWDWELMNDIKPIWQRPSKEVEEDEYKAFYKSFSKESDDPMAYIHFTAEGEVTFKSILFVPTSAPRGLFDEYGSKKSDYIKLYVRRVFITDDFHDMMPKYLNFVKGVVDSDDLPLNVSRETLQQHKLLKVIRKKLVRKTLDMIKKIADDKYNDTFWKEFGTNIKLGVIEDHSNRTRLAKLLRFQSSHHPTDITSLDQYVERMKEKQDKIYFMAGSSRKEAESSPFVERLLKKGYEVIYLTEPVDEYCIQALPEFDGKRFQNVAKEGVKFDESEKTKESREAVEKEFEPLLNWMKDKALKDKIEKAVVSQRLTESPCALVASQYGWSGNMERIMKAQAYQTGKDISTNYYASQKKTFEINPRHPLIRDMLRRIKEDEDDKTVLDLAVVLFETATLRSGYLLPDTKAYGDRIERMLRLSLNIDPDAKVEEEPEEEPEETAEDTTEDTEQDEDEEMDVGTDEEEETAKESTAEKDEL

Regarding `O=C(NCCCN1CCOCC1)[C@H]1C[C@H](c2ccccc2)CN1C(=O)c1cc(C2CC2)c(O)cc1O`, the Kd in series [1] worked out at 68 nM. Further, the IC50 in series [2] turned out to be 203 nM; in [3] it was 187 nM; in series [4], 72 nM; in series [5], 105 nM; in series [6], 403 nM; in series [7] it was 31 nM. For the same compound, in series [8], the IC50 amounted to 136 nM. Moreover, in series [9], the Ratio IC50 was found to be 1.49. The Tmax in [10] was 0.883 h. Also, the Cmax in series [11] was found to be 76.5 µg/mL. The compound also showed an AUC at 24 h in series [12] of 239 µg·h/mL. This compound had a half-life in [13] of 6.9 h. Besides, the CL/F in [14] was 1.75 mL/min/kg. The compound further registered a bioavailability in series [15] of 7.1%.

As to `CC(C)c1cc(C(=O)N2Cc3ccc(CN4CCN(C)CC4)cc3C2)c(O)cc1O` [ONALESPIB], the Kd in [1] stood at 27 nM; in [16], 50 nM; in series [17] it was 30 nM. Also, the half-inhibitory concentration (IC50) was determined as 30 nM in [2]; 102 nM in series [3]; 53 nM in series [4]; 197 nM in series [5]; 465 nM in series [6]; 131 nM in series [7]. This compound yielded a 50% inhibitory concentration (IC50) in [8] of 50 nM. Besides, the Ratio IC50 in series [9] worked out at 0.6.
